Laboratory results taken from US11225505B2, “Antimicrobial polymyxin derivative compounds” (MONASH UNIVERSITY, priority 2015, dated 2022).
Converted amounts (≈) assume the structure as drawn. Like-named read-outs stand apart in the source and are kept apart here. Where a SMILES comes first, the peptide text is derived from it. Bridges are numbered along the chain shown (N, C = ends). [ ]: non-standard residue; d: D form. The star is where a group is joined. Benzothiophen(2-yl)carbonyl = O=C(c1cc2ccccc2s1)*; Benzothiazole(5-carbonyl) = O=C(c1ccc2scnc2c1)*; Indazole3carbonyl = O=C(c1n[nH]c2ccccc12)*; Quinoline3carbonyl = O=C(c1cnc2ccccc2c1)*; Quinaldoyl = O=C(c1ccc2ccccc2n1)*; X11 = Cn1nc(C(=O)*)c2ccccc21; X23 = O=C(c1cc2ccccc2[nH]1)*; X69 = Cn1c(C(=O)*)nc2ccccc21; Dab = NCC[C@H](N)C(=O)O; Abu = CC[C@H](N)C(=O)O; Dap = NC[C@H](N)C(=O)O

Legend:
Type in all cases: cell-based
[1] = test system: Acinetobacter baumannii ATCC 17978
Summary of the method: (§1)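 In cation-adjusted Mueller-Hinton broth, each lipopeptide (TFA salt) was titrated against the bacteria by microdilution and the minimum inhibitory concentration recorded per CLSI M100-S24; polymyxin B sulphate ran in parallel.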

[2] = test system: Acinetobacter baumannii FADDI-AB034
Summary of the method: as §1

[3] = test system: Enterobacter cloacae FADDI-EC001
Summary of the method: (§2)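 Values are MICs of the lipopeptide trifluoroacetic acid salts. Dilution series were set up in CAMHB as CLSI M100-S24 specifies.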

[4] = test system: Enterobacter cloacae FADDI-EC003
Summary of the method: as §1

[5] = test system: Enterobacter cloacae FADDI-EC006
Summary of the method: as §1

[6] = test system: Klebsiella pneumoniae FADDI-KP022
Summary of the method: as §1

[7] = test system: Klebsiella pneumoniae FADDI-KP032
Summary of the method: as §1

[8] = test system: Klebsiella pneumoniae Kp BM1
Summary of the method: as §2

[9] = test system: Pseudomonas aeruginosa ATCC 27853
Summary of the method: as §1

[10] = test system: Pseudomonas aeruginosa FADDI-PA01
Summary of the method: as §1

[11] = test system: Pseudomonas aeruginosa FADDI-PA022
Summary of the method: as §1

[12] = test system: Pseudomonas aeruginosa FADDI-PA038
Summary of the method: as §1

[13] = test system: Acinetobacter baumannii FADDI-AB030; assay: microbe, parasite or virus in culture
Summary of the method: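 Lipopeptide TFA salts tested against the multidrug-resistant clinical isolate by CLSI (M100-S24) broth microdilution in cation-adjusted Mueller-Hinton broth, with polymyxin B sulphate as control; MIC read.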

Row | SMILES | Minimum inhibitory concentration ([1]; ATCC 17978) | Minimum inhibitory concentration ([2]; FADDI-AB034) | Minimum inhibitory concentration ([3]; FADDI-EC001) | Minimum inhibitory concentration ([4]; FADDI-EC003) | Minimum inhibitory concentration ([5]; FADDI-EC006) | Minimum inhibitory concentration ([6]; FADDI-KP022) | Minimum inhibitory concentration ([7]; FADDI-KP032) | Minimum inhibitory concentration ([8]; Kp BM1) | Minimum inhibitory concentration ([9]; ATCC 27853) | Minimum inhibitory concentration ([10]; FADDI-) | Minimum inhibitory concentration ([11]; FADDI-PA022) | Minimum inhibitory concentration ([12]; FADDI-PA038) | Minimum inhibitory concentration ([13]; FADDI-AB030) | also measured
1 | CC[C@@H]1NC(=O)[C@@H](CC(C)C)NC(=O)[C@H](CCN)NC(=O)[C@@H](NC(=O)[C@H](CN)NC(=O)[C@@H](NC(=O)[C@H](CCN)NC(=O)c2cc3ccccc3s2)[C@@H](C)O)CCNC(=O)[C@H]([C@@H](C)O)NC(=O)[C@H](CCN)NC(=O)[C@H](CCN)NC1=O [Compound 50] ({Benzothiophen(2-yl)carbonyl}-[Dab]T[Dap][Dab][Dab][dL][Abu][Dab][Dab]T; lactam 4-C) | <0.125 µg/mL | <0.125 µg/mL | 0.25 µg/mL (≈ 0.218 µM) | 0.5 µg/mL (≈ 0.436 µM) | 0.5 µg/mL (≈ 0.436 µM) | <0.125 µg/mL | 0.25 µg/mL (≈ 0.218 µM) | 0.5 µg/mL (≈ 0.436 µM) | 0.5 µg/mL (≈ 0.436 µM) | <0.125 µg/mL | 0.25 µg/mL (≈ 0.218 µM) | 0.25 µg/mL (≈ 0.218 µM) | 0.5 µg/mL (≈ 0.436 µM) | 
2 | CC[C@@H]1NC(=O)[C@@H](CC(C)C)NC(=O)[C@H](CCN)NC(=O)[C@@H](NC(=O)[C@H](CN)NC(=O)[C@@H](NC(=O)[C@H](CCN)NC(=O)c2nn(C)c3ccccc23)[C@@H](C)O)CCNC(=O)[C@H]([C@@H](C)O)NC(=O)[C@H](CCN)NC(=O)[C@H](CCN)NC1=O [Compound 51] (X11-[Dab]T[Dap][Dab][Dab][dL][Abu][Dab][Dab]T; lactam 4-C) | 0.25 µg/mL (≈ 0.218 µM) | 0.25 µg/mL (≈ 0.218 µM) | <0.125 µg/mL | 0.25 µg/mL (≈ 0.218 µM) | 0.5 µg/mL (≈ 0.437 µM) | <0.125 µg/mL | <0.125 µg/mL | <0.125 µg/mL | 0.25 µg/mL (≈ 0.218 µM) | 0.25 µg/mL (≈ 0.218 µM) | 0.25 µg/mL (≈ 0.218 µM) | 1 µg/mL (≈ 0.873 µM) | <0.125 µg/mL | 
3 | CC[C@@H]1NC(=O)[C@@H](CC(C)C)NC(=O)[C@H](CCN)NC(=O)[C@@H](NC(=O)[C@H](CN)NC(=O)[C@@H](NC(=O)[C@H](CCN)NC(=O)c2cnc3ccccc3c2)[C@@H](C)O)CCNC(=O)[C@H]([C@@H](C)O)NC(=O)[C@H](CCN)NC(=O)[C@H](CCN)NC1=O [Compound 52] (Quinoline3carbonyl-[Dab]T[Dap][Dab][Dab][dL][Abu][Dab][Dab]T; lactam 4-C) | 2 µg/mL (≈ 1.75 µM) | 1 µg/mL (≈ 0.875 µM) | <0.125 µg/mL | 0.5 µg/mL (≈ 0.438 µM) | 1 µg/mL (≈ 0.875 µM) | <0.125 µg/mL | <0.125 µg/mL | 0.5 µg/mL (≈ 0.438 µM) | 0.5 µg/mL (≈ 0.438 µM) | 0.5 µg/mL (≈ 0.438 µM) | 0.5 µg/mL (≈ 0.438 µM) | 0.25 µg/mL (≈ 0.219 µM) | 0.5 µg/mL (≈ 0.438 µM) | 
4 | CC[C@@H]1NC(=O)[C@@H](CC(C)C)NC(=O)[C@H](CCN)NC(=O)[C@@H](NC(=O)[C@H](CN)NC(=O)[C@@H](NC(=O)[C@H](CCN)NC(=O)c2ccc3scnc3c2)[C@@H](C)O)CCNC(=O)[C@H]([C@@H](C)O)NC(=O)[C@H](CCN)NC(=O)[C@H](CCN)NC1=O [Compound 53] ({Benzothiazole(5-carbonyl)}-[Dab]T[Dap][Dab][Dab][dL][Abu][Dab][Dab]T; lactam 4-C; N-terminus assumed) | 2 µg/mL (≈ 1.74 µM) | 2 µg/mL (≈ 1.74 µM) | <0.125 µg/mL | 0.25 µg/mL (≈ 0.218 µM) | 2 µg/mL (≈ 1.74 µM) | <0.125 µg/mL | <0.125 µg/mL | 0.5 µg/mL (≈ 0.435 µM) | 0.5 µg/mL (≈ 0.435 µM) | 0.5 µg/mL (≈ 0.435 µM) | 0.25 µg/mL (≈ 0.218 µM) | 0.5 µg/mL (≈ 0.435 µM) | 1 µg/mL (≈ 0.871 µM) | 
5 | CC[C@@H]1NC(=O)[C@@H](CC(C)C)NC(=O)[C@H](CCN)NC(=O)[C@@H](NC(=O)[C@H](CN)NC(=O)[C@@H](NC(=O)[C@H](CCN)NC(=O)c2n[nH]c3ccccc23)[C@@H](C)O)CCNC(=O)[C@H]([C@@H](C)O)NC(=O)[C@H](CCN)NC(=O)[C@H](CCN)NC1=O [Compound 54] (Indazole3carbonyl-[Dab]T[Dap][Dab][Dab][dL][Abu][Dab][Dab]T; lactam 4-C) |  |  |  |  |  |  |  |  |  |  |  |  |  | Minimum inhibitory concentration ([1]; A. baumannii ATCC 17978, CAMHB broth microdilution): 1 µg/mL (≈ 0.884 µM); Minimum inhibitory concentration ([2]; A. baumannii FADDI-AB034, CAMHB broth microdilution): 0.5 µg/mL (≈ 0.442 µM); Minimum inhibitory concentration ([3]; E. cloacae FADDI-EC001, CAMHB broth microdilution): <0.125 µg/mL; Minimum inhibitory concentration ([4]; E. cloacae FADDI-EC003, CAMHB broth microdilution): 0.5 µg/mL (≈ 0.442 µM); Minimum inhibitory concentration ([5]; E. cloacae FADDI-EC006, CAMHB broth microdilution): 0.5 µg/mL (≈ 0.442 µM); Minimum inhibitory concentration ([6]; K. pneumoniae FADDI-KP022, CAMHB broth microdilution): <0.125 µg/mL; Minimum inhibitory concentration ([7]; K. pneumoniae FADDI-KP032, CAMHB broth microdilution): <0.125 µg/mL; Minimum inhibitory concentration ([8]; K. pneumoniae Kp BM1, CAMHB broth microdilution): <0.125 µg/mL; Minimum inhibitory concentration ([9]; P. aeruginosa ATCC 27853, CAMHB broth microdilution): 0.5 µg/mL (≈ 0.442 µM); Minimum inhibitory concentration ([10]; P. aeruginosa FADDI-PA01, CAMHB broth microdilution): 0.25 µg/mL (≈ 0.221 µM); Minimum inhibitory concentration ([11]; P. aeruginosa FADDI-PA022, CAMHB broth microdilution): 0.5 µg/mL (≈ 0.442 µM); Minimum inhibitory concentration ([12]; P. aeruginosa FADDI-PA038, CAMHB broth microdilution): 0.25 µg/mL (≈ 0.221 µM); Minimum inhibitory concentration ([13]; A. baumannii FADDI-AB030, CAMHB broth microdilution): 0.25 µg/mL (≈ 0.221 µM)
6 | CC[C@@H]1NC(=O)[C@@H](CC(C)C)NC(=O)[C@H](CCN)NC(=O)[C@@H](NC(=O)[C@H](CN)NC(=O)[C@@H](NC(=O)[C@H](CCN)NC(=O)c2ccc3ccccc3n2)[C@@H](C)O)CCNC(=O)[C@H]([C@@H](C)O)NC(=O)[C@H](CCN)NC(=O)[C@H](CCN)NC1=O [Compound 55] (Quinaldoyl-[Dab]T[Dap][Dab][Dab][dL][Abu][Dab][Dab]T; lactam 4-C) | 1 µg/mL (≈ 0.875 µM) | 0.25 µg/mL (≈ 0.219 µM) | <0.125 µg/mL | <0.125 µg/mL | <0.125 µg/mL | <0.125 µg/mL | <0.125 µg/mL | 0.5 µg/mL (≈ 0.438 µM) | 0.25 µg/mL (≈ 0.219 µM) | 0.25 µg/mL (≈ 0.219 µM) | <0.125 µg/mL | 0.25 µg/mL (≈ 0.219 µM) | 0.25 µg/mL (≈ 0.219 µM) | 
7 | CC[C@@H]1NC(=O)[C@@H](CC(C)C)NC(=O)[C@H](CCN)NC(=O)[C@@H](NC(=O)[C@H](CN)NC(=O)[C@@H](NC(=O)[C@H](CCN)NC(=O)c2cc3ccccc3[nH]2)[C@@H](C)O)CCNC(=O)[C@H]([C@@H](C)O)NC(=O)[C@H](CCN)NC(=O)[C@H](CCN)NC1=O [Compound 56] (X23-[Dab]T[Dap][Dab][Dab][dL][Abu][Dab][Dab]T; lactam 4-C) | 0.25 µg/mL (≈ 0.221 µM) | <0.125 µg/mL | <0.125 µg/mL | 0.5 µg/mL (≈ 0.442 µM) | 0.5 µg/mL (≈ 0.442 µM) | <0.125 µg/mL | <0.125 µg/mL | 0.25 µg/mL (≈ 0.221 µM) | 0.25 µg/mL (≈ 0.221 µM) | <0.125 µg/mL | 0.25 µg/mL (≈ 0.221 µM) | 0.5 µg/mL (≈ 0.442 µM) | 0.25 µg/mL (≈ 0.221 µM) | 
8 | CC[C@@H]1NC(=O)[C@@H](CC(C)C)NC(=O)[C@H](CCN)NC(=O)[C@@H](NC(=O)[C@H](CN)NC(=O)[C@@H](NC(=O)[C@H](CCN)NC(=O)c2nc3ccccc3n2C)[C@@H](C)O)CCNC(=O)[C@H]([C@@H](C)O)NC(=O)[C@H](CCN)NC(=O)[C@H](CCN)NC1=O [Compound 57] (X69-[Dab]T[Dap][Dab][Dab][dL][Abu][Dab][Dab]T; lactam 4-C) | 0.5 µg/mL (≈ 0.437 µM) | 0.5 µg/mL (≈ 0.437 µM) | <0.125 µg/mL | 0.25 µg/mL (≈ 0.218 µM) | 1 µg/mL (≈ 0.873 µM) | <0.125 µg/mL | <0.125 µg/mL | 0.25 µg/mL (≈ 0.218 µM) | 0.5 µg/mL (≈ 0.437 µM) | 0.25 µg/mL (≈ 0.218 µM) | 0.5 µg/mL (≈ 0.437 µM) | 0.5 µg/mL (≈ 0.437 µM) | 0.25 µg/mL (≈ 0.218 µM) | 
